Biological target: human, KCNT1 (Homo sapiens (Human), UniProt Q5JUK3)
Assay: FLIPR Tl/K Flux Assay
Assay type: cell-based
Details: HEK293 cells stably expressing human KCNT1; Tl+ flux stimulated with EC80 of agonist Loxapine
Procedure, shortened: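 Inhibition values come from a Hill-equation fit of % inhibition versus log concentration, using normalized fluorescence (Fmax/Fmin) over a 160 s read. The read followed stimulation with Tl+ plus EC80 agonist loxapine after 30 min compound pre-incubation at 25 °C. Cells were KCNT1-expressing HEK293, dye-loaded 1 h in pH 7.4 HEPES/HBSS with 5 mM probenecid.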

Chain of human, KCNT1 (Q5JUK3 whole entry): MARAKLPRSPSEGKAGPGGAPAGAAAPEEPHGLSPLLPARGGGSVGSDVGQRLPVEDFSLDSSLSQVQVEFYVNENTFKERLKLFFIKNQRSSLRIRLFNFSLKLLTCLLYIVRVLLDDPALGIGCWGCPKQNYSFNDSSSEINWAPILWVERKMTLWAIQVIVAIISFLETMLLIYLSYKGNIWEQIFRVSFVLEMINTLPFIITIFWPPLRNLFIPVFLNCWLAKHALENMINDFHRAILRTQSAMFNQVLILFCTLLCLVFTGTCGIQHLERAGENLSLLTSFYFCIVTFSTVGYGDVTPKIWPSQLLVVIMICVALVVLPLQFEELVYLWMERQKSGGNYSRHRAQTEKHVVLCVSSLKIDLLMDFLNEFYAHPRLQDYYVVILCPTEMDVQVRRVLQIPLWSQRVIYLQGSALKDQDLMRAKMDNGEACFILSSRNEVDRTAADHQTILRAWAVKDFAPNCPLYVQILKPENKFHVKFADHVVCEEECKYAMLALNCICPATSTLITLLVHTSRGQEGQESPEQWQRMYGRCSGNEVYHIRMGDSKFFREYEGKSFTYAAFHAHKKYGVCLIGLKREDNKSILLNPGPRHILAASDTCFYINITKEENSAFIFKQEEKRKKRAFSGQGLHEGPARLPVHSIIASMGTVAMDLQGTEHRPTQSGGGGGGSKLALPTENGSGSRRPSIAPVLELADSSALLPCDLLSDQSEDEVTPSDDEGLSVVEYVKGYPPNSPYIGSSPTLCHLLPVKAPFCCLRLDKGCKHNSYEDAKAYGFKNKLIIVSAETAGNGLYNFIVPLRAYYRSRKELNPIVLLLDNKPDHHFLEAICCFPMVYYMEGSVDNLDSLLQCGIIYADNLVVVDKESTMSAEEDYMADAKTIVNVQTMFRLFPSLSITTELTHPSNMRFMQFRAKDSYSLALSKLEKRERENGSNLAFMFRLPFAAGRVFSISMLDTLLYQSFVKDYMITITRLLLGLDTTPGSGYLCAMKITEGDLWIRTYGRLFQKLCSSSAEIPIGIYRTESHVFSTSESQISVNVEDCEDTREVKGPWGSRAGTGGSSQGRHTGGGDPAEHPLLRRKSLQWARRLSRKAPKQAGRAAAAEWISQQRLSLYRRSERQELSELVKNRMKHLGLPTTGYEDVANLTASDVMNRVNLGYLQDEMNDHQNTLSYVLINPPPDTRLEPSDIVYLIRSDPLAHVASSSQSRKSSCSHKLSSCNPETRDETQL

Row | SMILES | IC50
1 | O=C(N[C@H]1CCn2nc(-c3ccnc(C(F)(F)F)c3)cc21)c1cccc(C(F)(F)F)c1 [Compound I-289a, (S)-3-(Trifluoromethyl)-N-(2-(2-(trifluoromethyl)pyridin-4-yl)-5,6-dihydro-4H-pyrrolo[1,2-b]pyrazol-4-yl)benzamide] | < 250 nM
2 | O=C(N[C@H]1CCCn2nc(-c3ccnc(C(F)(F)F)c3)cc21)c1cccc(C(F)(F)F)c1 [Compound I-290a, (S)-3-(Trifluoromethyl)-N-(2-(2-(trifluoromethyl)pyridin-4-yl)-4,5,6,7-tetrahydropyrazolo[1,5-a]pyridin-4-yl)benzamide] | < 250 nM
3 | O=C(N[C@H]1CCn2nc(-c3ccnc(C(F)(F)F)c3)cc21)c1cc2cccnn2c1 [Compound I-291a, (S)-N-(2-(2-(Trifluoromethyl)pyridin-4-yl)-5,6-dihydro-4H-pyrrolo[1,2-b]pyrazol-4-yl)pyrrolo[1,2-b]pyridazine-6-carboxamide] | < 250 nM
4 | COc1cc(-c2cc3n(n2)CC[C@@H]3NC(=O)c2cc3cccnn3c2)ccn1 [Compound I-292a, (S)-N-(2-(2-Methoxypyridin-4-yl)-5,6-dihydro-4H-pyrrolo[1,2-b]pyrazol-4-yl)pyrrolo[1,2-b]pyridazine-6-carboxamide] | < 250 nM
5 | COc1cc(-c2nc3c(o2)CCC[C@@H]3NC(=O)c2cc3cccnn3c2)ccn1 [Compound I-293a, (S)-N-(2-(2-Methoxypyridin-4-yl)-4,5,6,7-tetrahydrobenzo[d]oxazol-4-yl)pyrrolo[1,2-b]pyridazine-6-carboxamide] | 250 to 500 nM
6 | COc1cc(-c2nc3c(o2)CCC[C@@H]3NC(=O)c2cccc(C#N)c2)ccn1 [Compound I-294a, (S)-3-Cyano-N-(2-(2-methoxypyridin-4-yl)-4,5,6,7-tetrahydrobenzo[d]oxazol-4-yl)benzamide] | < 250 nM
7 | N#Cc1cc(C(=O)N[C@H]2CCCn3nc(-c4ccnc(C(F)(F)F)c4)cc32)cc(C(F)(F)F)c1 [Compound I-295a, (S)-3-Cyano-5-(trifluoromethyl)-N-(2-(2-(trifluoromethyl)pyridin-4-yl)-4,5,6,7-tetrahydropyrazolo[1,5-a]pyridin-4-yl)benzamide] | < 250 nM
8 | O=C(N[C@H]1CCCc2oc(-c3ccnc(C(F)(F)F)c3)nc21)c1cc2cccnn2c1 [Compound I-296a, (S)-N-(2-(2-(Trifluoromethyl)pyridin-4-yl)-4,5,6,7-tetrahydrobenzo[d]oxazol-4-yl)pyrrolo[1,2-b]pyridazine-6-carboxamide] | < 250 nM
9 | N#Cc1cccc(C(=O)N[C@H]2CCCc3oc(-c4ccnc(C(F)(F)F)c4)nc32)c1 [Compound I-297a, (S)-3-Cyano-N-(2-(2-(trifluoromethyl)pyridin-4-yl)-4,5,6,7-tetrahydrobenzo[d]oxazol-4-yl)benzamide] | < 250 nM
10 | N#Cc1cc(F)cc(C(=O)N[C@H]2CCCc3oc(-c4ccnc(C(F)(F)F)c4)nc32)c1 [Compound I-298a, (S)-3-Cyano-5-fluoro-N-(2-(2-(trifluoromethyl)pyridin-4-yl)-4,5,6,7-tetrahydrobenzo[d]oxazol-4-yl)benzamide] | < 250 nM
11 | COc1cc(C(=O)N[C@H]2CCCc3oc(-c4ccnc(C(F)(F)F)c4)nc32)ccn1 [Compound I-299a] | < 250 nM
12 | N#Cc1cc(F)cc(C(=O)N[C@H]2CCn3nc(-c4ccnc(C5CC5)c4)cc32)c1 [Compound I-300a, (S)-3-Cyano-N-(2-(2-cyclopropylpyridin-4-yl)-5,6-dihydro-4H-pyrrolo[1,2-b]pyrazol-4-yl)-5-fluorobenzamide] | < 250 nM
13 | COc1cc(-c2cc3n(n2)CC[C@@H]3NC(=O)c2cc(F)cc(C#N)c2)ccn1 [Compound I-301a, (S)-3-Cyano-5-fluoro-N-(2-(2-methoxypyridin-4-yl)-5,6-dihydro-4H-pyrrolo[1,2-b]pyrazol-4-yl)benzamide] | < 250 nM
14 | N#Cc1cccc(C(=O)N[C@H]2CCCn3nc(-c4cc(C(F)(F)F)ncc4F)cc32)c1 [Compound I-302a, (S)-3-Cyano-N-(2-(5-fluoro-2-(trifluoromethyl)pyridin-4-yl)-4,5,6,7-tetrahydropyrazolo[1,5-a]pyridin-4-yl)benzamide] | < 250 nM
15 | Cc1cnc(C(F)(F)F)cc1-c1cc2n(n1)CCC[C@@H]2NC(=O)c1nc(C(F)(F)F)nn1C [Compound I-303a, (S)-1-Methyl-N-(2-(5-methyl-2-(trifluoromethyl)pyridin-4-yl)-4,5,6,7-tetrahydropyrazolo[1,5-a]pyridin-4-yl)-3-(trifluoromethyl)-1H-1,2,4-triazole-5-carboxamide] | < 250 nM
16 | Cc1cnc(C(F)(F)F)cc1-n1cc2c(n1)CC[C@@H]2NC(=O)c1cc(C(F)(F)F)nn1C [Compound I-304a, (S)-1-Methyl-N-(2-(5-methyl-2-(trifluoromethyl)pyridin-4-yl)-2,4,5,6-tetrahydrocyclopenta[c]pyrazol-4-yl)-3-(trifluoromethyl)-1H-pyrazole-5-carboxamide] | < 250 nM
17 | Cc1cc(C#N)cc(C(=O)NC2CCn3nc(-c4ccnc(C5CC5)c4)cc32)c1 (stereo not shown) [Compound I-306a, 3-Cyano-N-(2-(2-cyclopropylpyridin-4-yl)-5,6-dihydro-4H-pyrrolo[1,2-b]pyrazol-4-yl)-5-methylbenzamide] | < 250 nM
18 | Cn1nc(C(F)(F)F)cc1C(=O)N[C@H]1CCCn2nc(-c3cnnc(C(F)(F)F)c3)cc21 [Compound I-307a, (S)-1-Methyl-3-(trifluoromethyl)-N-(2-(6-(trifluoromethyl)pyridazin-4-yl)-4,5,6,7-tetrahydropyrazolo[1,5-a]pyridin-4-yl)-1H-pyrazole-5-carboxamide] | 500 to 1000 nM

The next lines start with the values.

Row | IC50 | SMILES
19 | < 250 nM | Cn1nc(C(F)(F)F)nc1C(=O)N[C@H]1CCc2nn(-c3ccnc(C(F)(F)F)c3)cc21 [Compound I-308a, (S)-1-Methyl-3-(trifluoromethyl)-N-(2-(2-(trifluoromethyl)pyridin-4-yl)-2,4,5,6-tetrahydrocyclopenta[c]pyrazol-4-yl)-1H-1,2,4-triazole-5-carboxamide]
20 | < 250 nM | N#Cc1cccc(C(=O)N[C@H]2CCn3nc(-c4ccnc(C5CC5)c4)cc32)c1 [Compound I-310a, (S)-3-Cyano-N-(2-(2-cyclopropylpyridin-4-yl)-5,6-dihydro-4H-pyrrolo[1,2-b]pyrazol-4-yl)benzamide]
21 | < 250 nM | Cc1cnc(C(F)(F)F)cc1-c1cc2n(n1)CCCC[C@@H]2NC(=O)c1cc(C(F)(F)F)nn1C [Compound I-311a, (S)-1-Methyl-N-(2-(5-methyl-2-(trifluoromethyl)pyridin-4-yl)-5,6,7,8-tetrahydro-4H-pyrazolo[1,5-a]azepin-4-yl)-3-(trifluoromethyl)-1H-pyrazole-5-carboxamide]
22 | > 1000 nM | Cc1cnc(C(F)(F)F)cc1-c1cc2n(n1)CCCC[C@H]2NC(=O)c1cc(C(F)(F)F)nn1C [Compound I-311b]
23 | < 250 nM | COc1cc(-c2cc3n(n2)CCCC[C@@H]3NC(=O)c2cc(F)cc(C#N)c2)ccn1 [Compound I-312a, (S)-3-Cyano-5-fluoro-N-(2-(2-methoxypyridin-4-yl)-5,6,7,8-tetrahydro-4H-pyrazolo[1,5-a]azepin-4-yl)benzamide]
24 | < 250 nM | COc1cc(-c2cc3n(n2)CCC[C@@H]3NC(=O)c2cc(F)cc(C#N)c2)ccn1 [Compound I-313a, (S)-3-Cyano-5-fluoro-N-(2-(2-methoxypyridin-4-yl)-4,5,6,7-tetrahydropyrazolo[1,5-a]pyridin-4-yl)benzamide]
25 | < 250 nM | Cn1nc(C(F)(F)F)nc1C(=O)N[C@H]1CCn2nc(-c3ccnc(C(F)(F)F)c3)cc21 [Compound I-314a, (S)-1-Methyl-3-(trifluoromethyl)-N-(2-(2-(trifluoromethyl)pyridin-4-yl)-5,6-dihydro-4H-pyrrolo[1,2-b]pyrazol-4-yl)-1H-1,2,4-triazole-5-carboxamide]
26 | < 250 nM | Cc1cc(-c2cc3n(n2)CCC[C@@H]3NC(=O)c2cc(C(F)(F)F)nn2C)cc(C2CC2)n1 [Compound I-315a, (S)-N-(2-(2-Cyclopropyl-6-methylpyridin-4-yl)-4,5,6,7-tetrahydropyrazolo[1,5-a]pyridin-4-yl)-1-methyl-3-(trifluoromethyl)-1H-pyrazole-5-carboxamide]
27 | 500 to 1000 nM | Cn1nc(C(F)(F)F)cc1C(=O)N[C@H]1CCCn2nc(-c3nnc(C(F)(F)F)o3)cc21 [Compound I-316a, (S)-1-Methyl-3-(trifluoromethyl)-N-(2-(5-(trifluoromethyl)-1,3,4-oxadiazol-2-yl)-4,5,6,7-tetrahydropyrazolo[1,5-a]pyridin-4-yl)-1H-pyrazole-5-carboxamide]
28 | 500 to 1000 nM | Cn1nc(C(F)(F)F)cc1C(=O)N[C@H]1CCCn2nc(-c3cnc(C(F)(F)F)o3)cc21 [Compound I-317a, (S)-1-Methyl-3-(trifluoromethyl)-N-(2-(2-(trifluoromethyl)oxazol-5-yl)-4,5,6,7-tetrahydropyrazolo[1,5-a]pyridin-4-yl)-1H-pyrazole-5-carboxamide]
29 | < 250 nM | CCOc1cc(C(=O)N[C@H]2CCn3nc(-c4cc(C(F)(F)F)ncc4F)cc32)ccn1 [Compound I-318a, (S)-2-Ethoxy-N-(2-(5-fluoro-2-(trifluoromethyl)pyridin-4-yl)-5,6-dihydro-4H-pyrrolo[1,2-b]pyrazol-4-yl)isonicotinamide]
30 | < 250 nM | N#Cc1cc(F)cc(C(=O)N[C@H]2CCCCn3nc(-c4ccnc(C(F)(F)F)c4)cc32)c1 [Compound I-319a, (S)-3-Cyano-5-fluoro-N-(2-(2-(trifluoromethyl)pyridin-4-yl)-5,6,7,8-tetrahydro-4H-pyrazolo[1,5-a]azepin-4-yl)benzamide]
31 | < 250 nM | N#Cc1cc(F)cc(C(=O)N[C@H]2CCCn3nc(-c4ccnc(C(F)(F)F)c4)cc32)c1 [Compound I-320a, (S)-3-Cyano-5-fluoro-N-(2-(2-(trifluoromethyl)pyridin-4-yl)-4,5,6,7-tetrahydropyrazolo[1,5-a]pyridin-4-yl)benzamide]

— US20250313548A1 (Actio Biosciences, Inc., priority 2023, published 2025)
